From patent US12344610B2, “APOL1 inhibitors and methods of use” (Maze Therapeutics, Inc., priority 2022, dated 2025)

Tests used:
[1] = test system: HEK293 cells overexpressing APOL1 G2; experiment: APOL1 G2 HEK293 cell rescue assay (reversal of cell death caused by overexpression of APOL1); type: cell-based; details: Homo sapiens, HEK293, HEK293 overexpressing APOL1 G2; geometric mean of at least 2 assay runs; † = single assay run
Method in brief: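 Each compound tested in duplicate wells on one plate per run, with values usually the geometric mean across at least two runs on different days, occasionally from one run only. Read-out: concentration giving half-maximal rescue of APOL1 G2 overexpression-induced death of HEK293 cells.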

[2] = test system: HEK293 clonal cell line overexpressing APOL1 G1; experiment: APOL1 G1 HEK293 cell rescue assay (Example B3); type: cell-based; details: Homo sapiens, HEK293, HEK293 clonal line overexpressing APOL1 G1; geometric mean of at least 2 runs; † = single run; ¥ = concentration at 50% rescue estimated (no sigmoidal curve)
Method in brief: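 Rescue of cell death caused by APOL1 G1 overexpression was measured in a clonal HEK293 line. Compounds were tested in duplicate on one plate, and EC50s were geometric means across at least two runs on different days. Some values are estimated 50%-rescue concentrations where curve fitting failed.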

CNC(=O)N1CCCc2cc(OCCN3CCC4(CC3)C(=O)Nc3ccc(Cl)cc34)ccc21 [Compound 60, 6-(2-{5-chloro-2-oxo-1,2-dihydrospiro[indole-3,4′-piperidin]-1′-yl}ethoxy)-N-methyl-1,2,3,4-tetrahydroquinoline-1-carboxamide]
EC50 [1]: 62.7 nM
EC50 [2]: 183 nM

O=C1Nc2ccc(Cl)cc2C12CCN(CCOc1ccc3nccnc3c1)CC2 [Compound 62, 5-chloro-1′-[2-(quinoxalin-6-yloxy)ethyl]-1,2-dihydrospiro[indole-3,4′-piperidin]-2-one]
EC50 [1]: 165 nM
EC50 [2]: 433 nM

CS(=O)(=O)c1ccc(OCCN2CCC3(CC2)C(=O)Nc2ccc(Cl)cc23)cc1F [Compound 63, 5-chloro-1′-[2-(3-fluoro-4-methanesulfonylphenoxy)ethyl]-1,2-dihydrospiro[indole-3,4′-piperidin]-2-one]
EC50 [1]: 51.1 nM
EC50 [2]: 160 nM

CS(=O)(=O)c1ccc(OCCN2CCC3(CC2)C(=O)Nc2ccc(Cl)cc23)cn1 [Compound 64, 5-chloro-1′-{2-[(6-methanesulfonylpyridin-3-yl)oxy]ethyl}-1,2-dihydrospiro[indole-3,4′-piperidin]-2-one]
EC50 [1]: 163 nM
EC50 [2]: 516 nM

CN1C(=O)Cc2cc(OCCN3CCC4(CC3)C(=O)Nc3ccc(Cl)cc34)ccc21 [Compound 65, 5-chloro-1′-{2-[(1-methyl-2-oxo-2,3-dihydro-1H-indol-5-yl)oxy]ethyl}-1,2-dihydrospiro[indole-3,4′-piperidin]-2-one]
EC50 [1]: 87.5 nM
EC50 [2]: 351 nM

Cc1ccc2c(c1)C1(CCN(CCOc3ccc(S(C)(=O)=O)cc3)CC1)C(=O)N2 [Compound 66, 1′-[2-(4-methanesulfonylphenoxy)ethyl]-5-methyl-1,2-dihydrospiro[indole-3,4′-piperidin]-2-one]
EC50 [1]: 108 nM
EC50 [2]: 323 nM

Cn1ncc2cc(OCCN3CCC4(CC3)C(=O)Nc3ccc(Cl)cc34)ccc21 [Compound 68, 5-chloro-1′-{2-[(1-methyl-1H-indazol-5-yl)oxy]ethyl}-1,2-dihydrospiro[indole-3,4′-piperidin]-2-one]
EC50 [1]: 148 nM
EC50 [2]: 368 nM

CS(=O)(=O)c1ccc(OCCN2CCC3(CC2)C(=O)Nc2ccc(Cl)cc23)cc1 [Compound 69, 5-chloro-1′-[2-(4-methanesulfonylphenoxy)ethyl]-1,2-dihydrospiro[indole-3,4′-piperidin]-2-one]
EC50 [1]: 82.6 nM
EC50 [2]: 311 nM

Cn1ncc2cc(OCCN3CCC4(CC3)C(=O)Nc3ccccc34)ccc21 [Compound 70, 1′-{2-[(1-methyl-1H-indazol-5-yl)oxy]ethyl}-1,2-dihydrospiro[indole-3,4′-piperidin]-2-one]
EC50 [1]: 1050 nM
EC50 [2]: > 2530 nM

CS(=O)(=O)c1ccc(OCCN2CCC3(CC2)C(=O)Nc2ccc(C#N)cc23)cc1 [Compound 71, 1′-[2-(4-methanesulfonylphenoxy)ethyl]-2-oxo-1,2-dihydrospiro[indole-3,4′-piperidine]-5-carbonitrile]
EC50 [1]: 345 nM
EC50 [2]: 1340 nM

CS(=O)(=O)c1ccc(OCCN2CCC3(CC2)C(=O)Nc2ccc(Br)cc23)cc1 [Compound 72, 5-bromo-1′-[2-(4-methanesulfonylphenoxy)ethyl]-1,2-dihydrospiro[indole-3,4′-piperidin]-2-one]
EC50 [1]: 35.9 nM
EC50 [2]: 161 nM

CN(c1ccc(OCCN2CCC3(CC2)C(=O)Nc2ccc(C#N)cc23)cc1)S(C)(=O)=O [Compound 75, N-[4-(2-{5-cyano-2-oxo-1,2-dihydrospiro[indole-3,4′-piperidin]-1′-yl}ethoxy)phenyl]-N-methylmethanesulfonamide]
EC50 [1]: 114 nM
EC50 [2]: 406 nM

CN(c1ccc(OCCN2CCC3(CC2)C(=O)Nc2ccc(Cl)cc23)cc1)S(C)(=O)=O [Compound 76, N-[4-(2-{5-chloro-2-oxo-1,2-dihydrospiro[indole-3,4′-piperidin]-1′-yl}ethoxy)phenyl]-N-methylmethanesulfonamide]
EC50 [1]: 47.7 nM
EC50 [2]: 190 nM

CS(C)(=O)=Nc1ccc(OCCN2CCC3(CC2)C(=O)Nc2ccc(C#N)cc23)cc1 [Compound 77, 1′-[2-(4-{[dimethyl(oxo)-λ^6-sulfanylidene]amino}phenoxy)ethyl]-2-oxo-1,2-dihydrospiro[indole-3,4′-piperidine]-5-carbonitrile]
EC50 [1]: 2250 nM
EC50 [2]: > 4760 nM

CN1C(=O)CCc2cc(OCCN3CCC4(CC3)C(=O)Nc3ccc(Cl)cc34)cnc21 [Compound 78, 5-chloro-1′-{2-[(8-methyl-7-oxo-5,6,7,8-tetrahydro-1,8-naphthyridin-3-yl)oxy]ethyl}-1,2-dihydrospiro[indole-3,4′-piperidin]-2-one]
EC50 [1]: 41 nM
EC50 [2]: 128 nM

CN1C(=O)CCc2cc(OCCN3CCC4(CC3)C(=O)Nc3ccc(C#N)cc34)cnc21 [Compound 79, 1′-{2-[(8-methyl-7-oxo-5,6,7,8-tetrahydro-1,8-naphthyridin-3-yl)oxy]ethyl}-2-oxo-1,2-dihydrospiro[indole-3,4′-piperidine]-5-carbonitrile]
EC50 [1]: 207 nM
EC50 [2]: 533 nM

CC(C)[C@]1(O)C[C@@H](N2C(=O)CCc3cc(OCCN4CCC5(CC4)C(=O)Nc4ccc(Cl)cc45)cnc32)C1 [Compound 317, 5-chloro-1′-[2-({7-oxo-8-[(cis)-3-hydroxy-3-(propan-2-yl)cyclobutyl]-5,6,7,8-tetrahydro-1,8-naphthyridin-3-yl}oxy)ethyl]-1,2-dihydrospiro[indole-3,4′-piperidin]-2-one]
EC50 [1]: 23.9 nM
EC50 [2]: 45.6 nM

C[C@]1(O)C[C@@H](n2c(=O)ccc3cc(OCCN4CCC5(CC4)C(=O)Nc4ccc(Cl)cc45)cnc32)C1 [Compound 323, 5-chloro-1′-[2-({7-oxo-8-[(cis)-3-hydroxy-3-methylcyclobutyl]-7,8-dihydro-1,8-naphthyridin-3-yl}oxy)ethyl]-1,2-dihydrospiro[indole-3,4′-piperidin]-2-one]
EC50 [1]: 17.3 nM
EC50 [2]: 36.4 nM

C[C@]1(O)C[C@@H](n2c(=O)ccc3cc(OCCN4CCC5(CC4)C(=O)Nc4ccc(C(F)F)cc45)cnc32)C1 [Compound 324, 5-(difluoromethyl)-1′-[2-({7-oxo-8-[(cis)-3-hydroxy-3-methylcyclobutyl]-7,8-dihydro-1,8-naphthyridin-3-yl}oxy)ethyl]-1,2-dihydrospiro[indole-3,4′-piperidin]-2-one]
EC50 [1]: 25.6 nM
EC50 [2]: 40.8 nM

O=C1CCc2cc(OCCN3CCC4(CC3)C(=O)Nc3ccc(Cl)cc34)cnc2N1C1CC(CO)C1 (stereo not drawn) [Compound 326, 5-chloro-1′-[2-({8-[3-(hydroxymethyl)cyclobutyl]-7-oxo-5,6,7,8-tetrahydro-1,8-naphthyridin-3-yl}oxy)ethyl]-1,2-dihydrospiro[indole-3,4′-piperidin]-2-one]
EC50 [1]: 31.2 nM
EC50 [2]: 104 nM

CC1(O)CC(CN2C(=O)CCc3cc(OCCN4CCC5(CC4)C(=O)Nc4ccc(Cl)cc45)cnc32)C1 (stereo not drawn) [Compound 327, 5-chloro-1′-[2-({8-[(3-hydroxy-3-methylcyclobutyl)methyl]-7-oxo-5,6,7,8-tetrahydro-1,8-naphthyridin-3-yl}oxy)ethyl]-1,2-dihydrospiro[indole-3,4′-piperidin]-2-one]
EC50 [1]: 28.9 nM
EC50 [2]: 84.4 nM

C[C@]1(O)C[C@@H](n2c(=O)ccc3cc(OCCN4CCC5(CC4)C(=O)Nc4ccc(OC(F)F)cc45)cnc32)C1 [Compound 328, 5-(difluoromethoxy)-1′-[2-({7-oxo-8-[(cis)-3-hydroxy-3-methylcyclobutyl]-7,8-dihydro-1,8-naphthyridin-3-yl}oxy)ethyl]-1,2-dihydrospiro[indole-3,4′-piperidin]-2-one]
EC50 [1]: 34.1 nM
EC50 [2]: 98.2 nM

O=C1Nc2ccc(Cl)cc2C12CCN(CCOc1cnc(C3(CO)CC3)nc1)CC2 [Compound 333, 5-chloro-1′-[2-({2-[1-(hydroxymethyl)cyclopropyl]pyrimidin-5-yl}oxy)ethyl]-1,2-dihydrospiro[indole-3,4′-piperidin]-2-one]
EC50 [1]: 43 nM
EC50 [2]: 98.6 nM

CC(C)(CO)c1ncc(OCCN2CCC3(CC2)C(=O)Nc2ccc(Cl)cc23)cn1 [Compound 334, 5-chloro-1′-(2-{[2-(1-hydroxy-2-methylpropan-2-yl)pyrimidin-5-yl]oxy}ethyl)-1,2-dihydrospiro[indole-3,4′-piperidin]-2-one]
EC50 [1]: 110 nM
EC50 [2]: 269 nM

CP(C)(=O)C1(c2ccc(OCCN3CCC4(CC3)C(=O)Nc3ccc(Cl)cc34)cc2)CC1 [Compound 343, 5-chloro-1′-(2-{4-[1-(dimethylphosphoryl)cyclopropyl]phenoxy}ethyl)-1,2-dihydrospiro[indole-3,4′-piperidin]-2-one]
EC50 [1]: 162 nM
EC50 [2]: 431 nM

C[C@]1(O)C[C@@H](N2C(=O)Cc3cc(OCCN4CCC5(CC4)C(=O)Nc4ccc(Cl)cc45)cnc32)C1 [Compound 345, 5-chloro-1′-[2-({2-oxo-1-[(cis)-3-hydroxy-3-methylcyclobutyl]-1H,2H,3H-pyrrolo[2,3-b]pyridin-5-yl}oxy)ethyl]-1,2-dihydrospiro[indole-3,4′-piperidin]-2-one]
EC50 [1]: 36.4 nM
EC50 [2]: 79 nM

C[C@]1(O)C[C@@H](N2C(=O)Cc3cc(OCCN4CCC5(CC4)C(=O)Nc4ccc(C(F)F)cc45)cnc32)C1 [Compound 346, 5-(difluoromethyl)-1′-[2-({2-oxo-1-[(cis)-3-hydroxy-3-methylcyclobutyl]-1H,2H,3H-pyrrolo[2,3-b]pyridin-5-yl]oxy)ethyl]-1,2-dihydrospiro[indole-3,4′-piperidin]-2-one]
EC50 [1]: 34.3 nM
EC50 [2]: 83.7 nM
